Pest or weed control, chromatographic logP and Efficacy in % data for 14 molecules are collected here from patent US7521397B2, “Disubstituted pyrazolyl carboxanilides” (Bayer CropScience AG, priority 2002, dated 2009).

In one data set the test system is Venturia inaequalis. In words: Venturia test (apple)/protective. The data set is classed as in vivo. The settings on record: topical, 240 h, protective spray, application rate 100 g/ha, evaluation 10 days after inoculation, read-out: Efficacy in %. As for the experimental part: (§1) [table] To produce a suitable preparation of active compound, 1 part by weight of active compound is mixed with the stated amounts of solvent and emulsifier, and the concentrate is diluted with water to the desired concentration. To test for protective activity, young plants are sprayed with the preparation of active compound at the stated application rate. After the spray coating has dried on, the plants are inoculated with an aqueous conidia suspension of the apple scab pathogen Venturia inaequalis and then remain in an incubation cabin at about 20° C. and 100% relative atmospheric humidity for 1 day. The plants are then placed in a greenhouse at about 21° C. and a relative atmospheric humidity of about 90%. Evaluation is carried out 10 days after the inoculation. 0% means an efficacy which corresponds to that of the control, whereas an efficacy of 100% means that no infection is observed.

For the next data set, the system named is Podosphaera leucotricha. In words: Podosphaera test (apple)/protective. The data set is classed as in vivo. The note with it: topical, 240 h, protective spray, application rate 100 g/ha, evaluation 10 days after inoculation, read-out: Efficacy in %. As for the experimental part: as §1, with “spore” for “conidia”, “mildew” for “scab”, “Podosphaera leucotricha.” for “Venturia inaequalis and then remain in an incubation cabin at about 20° C. and 100% relative atmospheric humidity for 1 day.”, “23°” for “21°”, “70%.” for “90%.”

Data set [1] can be described thus: logP determination by HPLC on reverse-phase column (EEC Directive 79/831 Annex V.A8). The data set is classed as physicochemical. The settings on record: reverse-phase C18 HPLC column. As for the experimental part: The logP values given in the tables and Preparation Examples above are determined in accordance with EEC Directive 79/831 Annex V.A8 by HPLC (High Performance Liquid Chromatography) on a reverse-phase column (C 18). Temperature: 43° C. In the acidic range, the determination is carried out at pH 2.3 using the mobile phases 0.1% aqueous phosphoric acid and acetonitrile; linear gradient from 10% acetonitrile to 90% acetonitrile. Calibration is carried out using unbranched alkan-2-ones (of 3 to 16 carbon atoms) with known logP values (determination of the logP values by the retention times using linear interpolation between two successive alkanones).

The next data set deals with Sphaerotheca fuliginea. In words: Sphaerotheca test (cucumber)/protective. The data set is classed as in vivo. The settings on record: Podosphaera fuliginea, topical, 168 h, protective spray, application rate 100 g/ha, evaluation 7 days after inoculation, read-out: Efficacy in %. As for the experimental part: as §1, with “aqueous spore” for “aqueous conidia”, “the Sphaerotheca fuliginea.” for “the apple scab pathogen Venturia inaequalis and then remain in an incubation cabin at about 20° C. and 100% relative atmospheric humidity for 1 day.”, “about 23°” for “about 21°”, “about 70%.” for “about 90%.”, “out 7” for “out 10”

The subject of a further data set is Alternaria solani. In words: Alternaria test (tomato)/protective. The data set is classed as in vivo. The note with it: protective spray, application rate 750 g/ha, evaluation 7 days after inoculation. The procedure:
[table] To produce a suitable preparation of active compound, 1 part by weight of active compound is mixed with the stated amounts of solvent and emulsifier, and the concentrated is diluted with water to the desired concentration. To test for protective activity, young tomato plants are sprayed with the preparation of active compound at the stated application rate. 1 day after the treatment, the plants are inoculated with a spore suspension of Alternaria solani and are then kept at 100% relative atmospheric humidity and 20° C. for 24 h. The plants are then kept at 96% relative atmospheric humidity and a temperature of 20° C. Evaluation is carried out 7 days after the inoculation. 0% means an efficacy which corresponds to that of the control, whereas an efficacy of 100% means that no infection is observed.

Setting [2] is: pH 2.3, 43° C., preparation examples, read-out: logP (pH 2.3).
Where [3] appears, read: Table 1, 43° C., acidic range pH 2.3, read-out: logP.

Like-named read-outs stand apart in the source and are kept apart here.

For `Cn1cc(C(=O)Nc2c(F)cccc2-c2ccc(Cl)c(Cl)c2)c(C(F)(F)F)n1` [Example 1, N-(3′,4′-dichloro-3-fluoro-1,1′-biphenyl-2-yl)-1-methyl-3-(trifluoromethyl)-1H-pyrazole-4-carboxamide], the pest or weed control at 100 g/ha in the data set with Venturia inaequalis, in the data set on Podosphaera leucotricha and in the data set with Sphaerotheca fuliginea was 100% each time. Also, in data set [1] (setting [2]), the chromatographic logP is 3.1. The Efficacy in % in the data set on Alternaria solani is listed as 100%.
For `Cn1cc(C(=O)Nc2c(F)cccc2-c2ccc(F)c(Cl)c2)c(C(F)(F)F)n1` [Example 2], the chromatographic logP in data set [1] (setting [2]) was 3.04. The molecule further registered an Efficacy in % in the data set on Alternaria solani of 100%.
`Cn1cc(C(=O)Nc2cc(F)ccc2-c2ccc(Cl)c(Cl)c2)c(C(F)(F)F)n1` [Example 3]: the pest or weed control at 100 g/ha with Venturia inaequalis, in the data set with Podosphaera leucotricha and with Sphaerotheca fuliginea was 100% each time. Besides, in data set [1] (setting [3]), the chromatographic logP turned out to be 3.75. Also, the Efficacy in % with Alternaria solani is listed as 100%.
As for `Cn1cc(C(=O)Nc2cc(F)ccc2-c2ccc(F)c(Cl)c2)c(C(F)(F)F)n1` [Example 4], the pest or weed control at 100 g/ha in the data set on Venturia inaequalis amounted to 100%; in the data set with Podosphaera leucotricha, 100%; in the data set on Sphaerotheca fuliginea it was 99%. The chromatographic logP in data set [1] (setting [3]) came to 3.51. In the data set on Alternaria solani, this molecule had an Efficacy in % of 100%.
In the case of `Cn1cc(C(=O)Nc2ccc(F)cc2-c2ccc(Cl)c(Cl)c2)c(C(F)(F)F)n1` [Example 5], the pest or weed control at 100 g/ha with Venturia inaequalis, in the data set on Podosphaera leucotricha and in the data set with Sphaerotheca fuliginea was 100% in each case. In addition, in data set [1] (setting [3]), the chromatographic logP was 3.57. The molecule also returned an Efficacy in % in the data set on Alternaria solani of 100%.
For `Cn1cc(C(=O)Nc2ccc(F)cc2-c2ccc(F)c(Cl)c2)c(C(F)(F)F)n1` [Example 6], the pest or weed control at 100 g/ha in the data set with Venturia inaequalis is 100%; in the data set on Podosphaera leucotricha, 100%; in the data set with Sphaerotheca fuliginea, 98%. Also, the chromatographic logP in data set [1] (setting [3]) was 3.26. In the data set with Alternaria solani, this molecule registered an Efficacy in % of 100%.
Consider `Cn1cc(C(=O)Nc2c(F)cccc2-c2ccc(Cl)c(Cl)c2)c(C(F)F)n1` [Example 7], for which the pest or weed control at 100 g/ha in the data set on Venturia inaequalis, in the data set with Podosphaera leucotricha and with Sphaerotheca fuliginea was 100% each time. For the same molecule, in data set [1] (setting [3]), the chromatographic logP came to 3.1.
With `Cn1cc(C(=O)Nc2cc(F)ccc2-c2ccc(Cl)c(Cl)c2)c(C(F)F)n1` [Example 9], the pest or weed control at 100 g/ha in the data set with Venturia inaequalis amounted to 99%; in the data set with Podosphaera leucotricha it was 83%; in the data set on Sphaerotheca fuliginea, 94%. Besides, the chromatographic logP in data set [1] (setting [3]) was determined as 3.55.
Consider `Cn1cc(C(=O)Nc2cc(F)ccc2-c2ccc(F)c(Cl)c2)c(C(F)F)n1` [Example 10], for which the pest or weed control at 100 g/ha in the data set on Venturia inaequalis, in the data set on Podosphaera leucotricha and with Sphaerotheca fuliginea was 100% in each case. The chromatographic logP in data set [1] (setting [3]) was determined as 3.29.
Regarding `Cn1cc(C(=O)Nc2ccc(F)cc2-c2ccc(Cl)c(Cl)c2)c(C(F)F)n1` [Example 11], the pest or weed control at 100 g/ha in the data set with Venturia inaequalis, with Podosphaera leucotricha and in the data set with Sphaerotheca fuliginea was 100% each time. In data set [1] (setting [3]), the chromatographic logP worked out at 3.33.
On to `Cn1cc(C(=O)Nc2ccc(F)cc2-c2ccc(F)c(Cl)c2)c(C(F)F)n1` [Example 12], for which the pest or weed control at 100 g/ha in the data set on Venturia inaequalis, in the data set on Podosphaera leucotricha and in the data set with Sphaerotheca fuliginea was 100% throughout. Besides, in data set [1] (setting [3]), the chromatographic logP came to 3.07.
Regarding `Nc1c(F)cccc1-c1ccc(Cl)c(Cl)c1` [Example (III-1), 3′,4′-dichloro-3-fluoro-1,1′-biphenyl-2-amine], the chromatographic logP in data set [1] (setting [2]) was 4.09.
On the same count and under the same terms, with `Nc1ccc(F)cc1-c1ccc(Cl)c(Cl)c1` [Example (III-2), 3′,4′-Dichloro-5-fluoro-1,1′-biphenyl-2-amine] the figure was 3.62.
Same read-out and setting: with `Cn1cc(C(=O)Nc2c(F)cccc2Br)c(C(F)(F)F)n1` [Example (IV-1)] the figure was 2.12.
